In article PMC10418395, “Tetracyclic 1,4-Naphthoquinone Thioglucoside Conjugate U-556 Blocks the Purinergic P2X7 Receptor in Macrophages and Exhibits Anti-Inflammatory Activity In Vivo” (International Journal of Molecular Sciences, 2023):
pKd: −log10 of the molar value.

How the values were obtained:
[1] = biological target: T1, P2X7 receptor (mP2X7R) (Mus musculus, UniProt Q9Z1M0); experiment: ATP/BzATP-induced YO-PRO-1 uptake and Ca2+ influx in RAW […] cells; format: cell-based
T1 construct: gene P2rx7
T1 sequence (Q9Z1M0 1-595): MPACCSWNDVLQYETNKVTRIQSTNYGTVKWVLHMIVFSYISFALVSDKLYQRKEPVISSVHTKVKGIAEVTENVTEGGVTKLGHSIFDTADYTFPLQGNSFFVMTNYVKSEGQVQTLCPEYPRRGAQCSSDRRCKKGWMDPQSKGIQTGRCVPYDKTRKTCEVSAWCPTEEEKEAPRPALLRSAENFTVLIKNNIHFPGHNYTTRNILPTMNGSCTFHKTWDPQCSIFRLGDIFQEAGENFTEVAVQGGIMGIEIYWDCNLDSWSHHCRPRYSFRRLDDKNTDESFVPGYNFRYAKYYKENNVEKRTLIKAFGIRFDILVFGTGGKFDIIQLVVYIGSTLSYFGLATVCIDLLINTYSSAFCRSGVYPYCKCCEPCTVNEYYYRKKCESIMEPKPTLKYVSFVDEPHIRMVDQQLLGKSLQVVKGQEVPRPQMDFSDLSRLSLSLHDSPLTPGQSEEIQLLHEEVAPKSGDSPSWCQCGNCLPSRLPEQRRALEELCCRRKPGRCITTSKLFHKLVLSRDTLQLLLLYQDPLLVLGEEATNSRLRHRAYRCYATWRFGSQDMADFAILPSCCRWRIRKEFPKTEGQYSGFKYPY

[2] = biological target: T1, P2X7 receptor (mP2X7R); experiment: BzATP/ATP-induced YO-PRO-1 uptake and Ca2+ influx in RAW […] cells; format: cell-based
[3] = biological target: T2, P2X7 receptor (hP2X7) (Homo sapiens, UniProt Q99572); experiment: SPR (Biacore […], CM5 chip, Langmuir […]); format: binding
T2 construct: gene P2RX7
T2 sequence (Q99572 47-334): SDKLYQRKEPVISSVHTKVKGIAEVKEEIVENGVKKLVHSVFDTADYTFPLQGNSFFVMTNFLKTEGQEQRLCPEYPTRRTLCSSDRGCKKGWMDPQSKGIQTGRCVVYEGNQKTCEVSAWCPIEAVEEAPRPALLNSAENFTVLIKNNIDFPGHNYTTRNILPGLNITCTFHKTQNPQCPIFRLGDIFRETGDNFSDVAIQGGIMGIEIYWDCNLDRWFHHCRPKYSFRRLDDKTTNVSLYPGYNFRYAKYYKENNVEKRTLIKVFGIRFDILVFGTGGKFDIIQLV

SMILES | inhibition at 10 µM [1] | inhibition at 0.1 µM [2] | pKd [3]
Clc1cccc(-c2nnnn2Cc2cccnc2)c1Cl [A438079] | 48.3% |  | 
Cc1c(C)c(O)c2c(c1O)C(=O)C1=C(S[C@@H]3O[C@H](CO)[C@@H](O)[C@H](O)[C@H]3O1)C2=O [compound 4] |  | 52.7% | 4.89
